Measured values reported in patent US11673866B2, “Estrogen receptor beta ligands for the prevention and treatment of multiple sclerosis (MS) and other demyelinating, inflammatory and neurodegenerative diseases” (The Board of Trustees of the University of Illinois, priority 2018, dated 2023).
“Also recorded” adds a separate entry of the source.

Key:
[1] = test system: callosal axons; assay: Callosal compound action potential (CAP) recordings in brain slices of EAE mice; format: in vivo, mouse; settings: vs vehicle; for N1 CAP amplitude / N2 CAP amplitude: therapeutic treatment (postEAE)
Experimental: Electrophysiology: To assess functional conductivity across the CC, electrophysiological recordings of compound action potentials (CAPs) were measured as previously described (Crawford et al., 2009; Crawford et al., 2010). Coronal brain slices were prepared from adult (3 to 4 month old) C57BL/6 female mice. Briefly, mice were deeply anesthetized under isoflurane and decapitated. The brain was removed and submerged in partially frozen “slushy” solution of slicing buffer containing (in mM): 87 NaCl, 75 sucrose 2.5 KCl, 0.5 CaCl2), 7 MgCl2, 1.25 NaH2PO4, 25 NaHCO3, 10 glucose, 1.3 ascorbic acid, 0.1 kynurenic acid, 2.0 pyruvate, and 3.5 MOPS, bubbled with 5% CO2+95% O2 (Lauderdale et al., 2015). Coronal slices (350 μm) were prepared using a Leica VT 1000S Vibratome (Bannockburn, Ill.) and subsequently incubated for 45 minutes at 35° C. in slicing buffer. Following incubation, slices were allowed to cool to room temperature for 15 minutes then transferred to ACSF […] containing (in mM): 125 NaCl, 2.5 KCl, 2.5 CaCl2), 1.3 MgCl2, 1.25 NaH2PO4, 26.0 NaHCO3, and 15 glucose, oxygenated with 5% CO2+95% O2. Slices were equilibrated in the standard ACSF for a minimum of 15-20 minutes prior to electrophysiological recordings. During electrophysiological recordings, slices were continuously perfused with oxygenated ACSF maintained at a flow rate of 1 mL/min. For recording CAPs, an Axon Digidata 1550 was used with a Multiclamp 700B Amplifier and PClamp 10.4 Software (Molecular Devices, Sunnyvale, Calif.). Continuous recordings for CC conduction experiments were low-pass filtered at 10 kHz and digitized at 200 kHz. All experiments were conducted at room temperature (24-26° C.). To stimulate the CC fiber tract, a concentric bipolar stimulating electrode (FHC Neural microTargeting Worldwide, Bowdoin, Me., USA) was placed approximately 1 mm away across from a recoding electrode (glass micropipette filled with ACSF) with a resistance of 1-3 MO. To elicit CAPs, an episodic stimulation protocol was created consisting of 8 consecutive sweeps, each 12 ms long, with a 5-sec delay between sweeps and an immediate stimulus (0.01 ms duration) after the start of each sweep (Crawford et al., 2009a). Stimulus intensity was adjusted manually using an ISO-Flex stimulator (A.M.P.I). Standardized input-output plots were generated in current clamp mode for each slice by averaging at least 4 consecutive sweeps together to […] the signal-to-noise ratio. […] Electrophysiology data were analyzed using Clampfit 10.4 software (Molecular Devices, Sunnyvale, Calif.) and OriginPro 2016 64 Bit (OriginLab Corporation)
Large white matter tracts, such as the CC, are especially vulnerable to demyelination and axonal damage in MS and EAE (Ozturk et al., 2010; Mangiardi et al., 2011). Compound action potential (CAP) recordings are a valuable technique for assessing demyelination and damage in these areas through their impact on functional conductivity (Crawford et al., 2009; Crawford et al., 2010; Moore et al., 2013).

[2] = molecular target: T1, ERα (Homo sapiens, UniProt P03372); assay: Relative binding affinity (RBA) to estrogen receptor alpha, radiometric measurement; settings: relative value to 100% for E2 by radiometric measurement
T1 sequence (P03372 1-595): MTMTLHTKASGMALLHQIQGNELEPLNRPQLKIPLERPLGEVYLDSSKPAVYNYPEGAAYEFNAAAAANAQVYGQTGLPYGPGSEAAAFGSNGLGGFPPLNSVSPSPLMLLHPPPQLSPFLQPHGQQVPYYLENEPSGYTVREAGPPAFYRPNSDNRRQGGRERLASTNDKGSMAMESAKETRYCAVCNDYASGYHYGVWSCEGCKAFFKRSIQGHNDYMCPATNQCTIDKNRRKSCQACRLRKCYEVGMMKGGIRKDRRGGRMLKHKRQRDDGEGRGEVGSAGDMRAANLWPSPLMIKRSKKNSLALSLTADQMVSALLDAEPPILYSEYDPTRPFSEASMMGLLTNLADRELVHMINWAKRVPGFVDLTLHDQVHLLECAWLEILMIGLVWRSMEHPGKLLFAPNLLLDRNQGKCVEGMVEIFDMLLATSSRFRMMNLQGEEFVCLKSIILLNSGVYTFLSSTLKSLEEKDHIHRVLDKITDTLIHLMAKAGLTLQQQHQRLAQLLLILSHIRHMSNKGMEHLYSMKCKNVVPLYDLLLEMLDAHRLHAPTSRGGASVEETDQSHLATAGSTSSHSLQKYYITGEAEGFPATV

[3] = Post (therapeutic, postEAE) treatment of EAE mice

Row | Compound | Electrophysiology: N1 amplitude [1, 3] | N1 CAP amplitude [1] | RBA ERα [2] [%] | Electrophysiology: N2 amplitude [1, 3] | N2 CAP amplitude [1] | N2 CAP amplitude ([1]; listed as Ind-o-Cl)
1 | Oc1ccc(-n2nc3ccc(O)cc3c2Cl)cc1 [IndCl, chloroindazole] | + | significant improvement; also recorded: improved | 0.03 |  |  | 
2 | Cc1cc(O)ccc1-n1nc2ccc(O)cc2c1Cl [IndCl-o-Me, 3-chloro-2-(4-hydroxy-2-methylphenyl)-2H-indazol-5-ol] | + | improved | 0.43 |  |  | 
3 | Oc1ccc(-n2nc3ccc(O)cc3c2Cl)c(Cl)c1 [IndCl-o-Cl, 3-chloro-2-(2-chloro-4-hydroxyphenyl)-2H-indazol-5-ol] | + | improved | 0.40 | + | increased | small but significant increase
